In US11008346B2, “Beta-lactamase inhibitors” (priority 2014, dated 2021):
Where two headings read alike, the source gives them in different places.

Experiments:
[1] = test system: K. pneumoniae 156319 expressing KPC-3; assay: broth microdilution MIC, K. pneumoniae KPC-3; format: cell-based; conditions: Fixed Mero (meropenem) 4 μg/mL
Method in brief: (§1)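 Following CLSI broth microdilution, plates were read by eye for MIC after 16–20 h incubation at 37 °C. Each well held a fixed 4 μg/mL β-lactam overlay plus test compound serially halved from 32 to 0.25 μg/mL in CAMHB. Inocula came from 3–5 h broth cultures.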

[2] = test system: P. aeruginosa Ps296 expressing VIM-2; assay: broth microdilution MIC, P. aeruginosa VIM-2; format: cell-based; conditions: Fixed Mero (meropenem) 4 μg/mL
Method in brief: as §1

[3] = test system: E. cloacae 144200 expressing Class C P99 AmpC; assay: broth microdilution MIC, E. cloacae P99; format: cell-based; conditions: Fixed CAZ (ceftazidime) 4 μg/mL
Method in brief: as §1

[4] = test system: K. pneumoniae A-1797 expressing KPC-2 and VIM-4; assay: broth microdilution MIC, K. pneumoniae KPC-2 and VIM-4; format: cell-based; conditions: Fixed Mero (meropenem) 4 μg/mL
Method in brief: as §1

[5] = test system: S. aureus MSSA-7 producing penicillinase PC-1; assay: broth microdilution MIC, S. aureus PC-1; format: cell-based; conditions: Fixed Pip (piperacillin) 4 μg/mL
Source text: To determine the ability of test compounds to potentiate the inhibition of the growth of bacterial strains that produce beta-lactamase enzymes, classic cell based broth microdilution MIC assays were employed. Six bacteria strains producing beta-lactamase enzymes were used: E. coli expressing the Class A Extended Spectrum Beta-Lactamase (ESBL) CTX-M-15, E. cloacae expressing the Class C P99, K. pneumoniae expressing the Class A carbapenemase KPC-3, P. aeruginosa expressing the Class B carbapenemase VIM-2, K pneumoniae expressing the class A carbapenemase KPC-2 and the class B carbapenemase VIM-4, and S. aureus producing the Class A penicillinase PC-1. The assay was conducted in Cation Adjusted Mueller Hinton Broth (CAMHB, BD #212322, BD Diagnostic Systems, Sparks, Md.). Bacteria strains were grown for 3-5 hours in CAMBH broth. Test compounds were added to a microtiter plate in 2-fold serial dilutions in CAMHB in a final concentration range of 32 μg/mL to 0.25 μg/ml. An overlay of CAMHB containing a Beta-lactam was added to the compounds at a final static concentration of 4 μg/ml. […] In addition to the titration of test compounds the MICs of a panel of control beta-lactams is also tested to ensure the strains are behaving consistently from test to test. Once the test compound and antibiotics are added the plates can be inoculated according to CLSI broth microdilution method. After inoculation the plates are incubated for 16-20 hours at 37° C., then the Minimal Inhibitory Concentration (MIC) of the test compound is determined visually.
Using the methodology described above, examples of the current invention were evaluated for their ability to inhibit the growth of β-lactamase-producing bacteria in the presence of a β-lactam antibiotic.
Representative results are shown in Table 4 where A represents an MIC of the fixed β-lactam antibiotic in the presence of >32 µg/mL of a β-lactamase inhibitor of exemplary compounds, B represents the MIC in the presence of between 8 and 32 µg/mL of a β-lactamase inhibitor of exemplary compounds, and C represents the MIC in the presence of ≤4 µg/mL of a β-lactamase inhibitor of exemplary compounds. NT=Not Tested.

p99 AmpC β-lactamase = molecular target: T1, p99 AmpC β-lactamase (Enterobacter cloacae, UniProt P05364); assay: β-lactamase enzyme inhibition, p99 AmpC; format: biochemical
T1 construct: made in house; host or cells: E. coli BL21(DE3)
Method in brief: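 Native untagged E. cloacae p99 AmpC was expressed in E. coli BL21(DE3) and purified by cation exchange and gel filtration. Enzyme was preincubated with inhibitor at 37°C for 15 min.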

SHV-5 β-lactamase = molecular target: T2, SHV-5 β-lactamase (Klebsiella pneumoniae, UniProt P0A3M1); assay: β-lactamase enzyme inhibition, SHV-5; format: biochemical
T2 construct: made in house; host or cells: E. coli BL21(DE3)
Method in brief: (§2)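 Native untagged enzymes expressed in E. coli BL21(DE3) and purified by cation exchange and gel filtration were preincubated with inhibitor for 15 min at 37° C. Hydrolysis was followed for 10 min: nitrocefin (100 μM final, 486 nm) for OXA-1 and p99 AmpC, imipenem (300 nm) for KPC-2, cefotaxime (260 nm) for SHV-5; IC50 from initial rates.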

[6] = molecular target: T3, VIM-2 metallo β-lactamase (Pseudomonas aeruginosa, UniProt Q9K2N0); assay: β-lactamase enzyme inhibition, VIM-2; format: biochemical; conditions: Nitrocefin 100 μM, 486 nm; 15 min at 37° C. preincubation; read-out: IC50 VIM-2 (Class B)
T3 construct: made in house; host or cells: E. coli BL21(DE3)
Method in brief: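 VIM-2 purified by Q sepharose anion exchange (50 mM Hepes pH 7.5, 0-600 mM NaCl gradient, two runs, >90% purity). Enzyme preincubated with inhibitor 15 min at 37° C; nitrocefin 100 μM final, absorbance at 486 nm followed 10 min. IC50 from initial hydrolysis rates versus inhibitor-free controls.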

KPC-2 β-lactamase = molecular target: T4, KPC-2 β-lactamase (Klebsiella pneumoniae, UniProt Q9F663); assay: β-lactamase enzyme inhibition, KPC-2; format: biochemical
T4 construct: made in house; host or cells: E. coli BL21(DE3)
Method in brief: as §2

[7] = test system: E. coli ESBL4 expressing CTX-M-15; assay: broth microdilution MIC, E. coli CTX-M-15; format: cell-based; conditions: Fixed CAZ (ceftazidime) 4 μg/mL
Method in brief: as §1

OXA-1 β-lactamase = molecular target: T5, OXA-1 β-lactamase (Escherichia coli, UniProt P13661); assay: β-lactamase enzyme inhibition, OXA-1; format: biochemical; conditions: Nitrocefin 100 μM, 486 nm; 15 min at 37° C. preincubation; read-out: IC50 OXA-1 (Class D)
T5 construct: made in house; host or cells: E. coli BL21(DE3)
Method in brief: as §2

[8] = imipenem substrate, 300 nm, 15 min at 37° C. preincubation, read-out: IC50 KPC-2 (Class A)

T5 sequence (P13661 26-276): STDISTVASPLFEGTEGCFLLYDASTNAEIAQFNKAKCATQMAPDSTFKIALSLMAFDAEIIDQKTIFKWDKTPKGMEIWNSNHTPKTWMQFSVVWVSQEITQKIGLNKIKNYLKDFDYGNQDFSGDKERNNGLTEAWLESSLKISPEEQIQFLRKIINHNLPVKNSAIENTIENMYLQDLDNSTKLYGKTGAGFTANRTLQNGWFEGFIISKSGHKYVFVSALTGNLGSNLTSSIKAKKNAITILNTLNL
T4 sequence (Q9F663 25-293, looked up): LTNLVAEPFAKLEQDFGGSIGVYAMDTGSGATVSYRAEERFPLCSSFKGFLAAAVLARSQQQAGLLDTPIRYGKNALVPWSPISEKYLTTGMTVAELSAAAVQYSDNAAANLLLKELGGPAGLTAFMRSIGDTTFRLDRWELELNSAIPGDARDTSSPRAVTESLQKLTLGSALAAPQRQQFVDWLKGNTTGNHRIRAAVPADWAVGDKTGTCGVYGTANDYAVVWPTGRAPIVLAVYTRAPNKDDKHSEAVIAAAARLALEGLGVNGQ
T2 sequence (P0A3M1 22-286): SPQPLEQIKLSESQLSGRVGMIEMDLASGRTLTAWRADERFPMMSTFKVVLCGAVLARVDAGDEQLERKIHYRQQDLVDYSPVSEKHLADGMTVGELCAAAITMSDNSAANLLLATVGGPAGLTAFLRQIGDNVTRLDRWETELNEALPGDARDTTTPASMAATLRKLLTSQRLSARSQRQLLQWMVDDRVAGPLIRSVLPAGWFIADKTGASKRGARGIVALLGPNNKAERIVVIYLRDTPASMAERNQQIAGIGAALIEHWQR
T1 sequence (P05364 21-381): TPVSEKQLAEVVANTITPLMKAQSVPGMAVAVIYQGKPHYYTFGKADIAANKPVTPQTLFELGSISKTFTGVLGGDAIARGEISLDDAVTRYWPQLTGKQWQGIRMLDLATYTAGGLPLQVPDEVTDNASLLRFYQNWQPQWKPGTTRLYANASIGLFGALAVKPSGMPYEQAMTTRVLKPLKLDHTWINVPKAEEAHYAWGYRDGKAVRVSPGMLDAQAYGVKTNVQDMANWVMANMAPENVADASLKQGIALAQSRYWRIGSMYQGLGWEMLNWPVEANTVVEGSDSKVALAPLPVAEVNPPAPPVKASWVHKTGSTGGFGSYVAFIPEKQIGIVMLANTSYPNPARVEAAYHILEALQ

| Compound | MIC of exemplary compounds in presence of fixed β-lactams, K.P. 156319 KPC-3 [1] | MIC of exemplary compounds in presence of fixed β-lactams, P. aerug. Ps296 VIM-2 [2] | MIC of exemplary compounds in presence of fixed β-lactams, E. cl. 144200 p99 AmpC [3] | MIC of exemplary compounds in presence of fixed β-lactams, K.P. A-1797 KPC-2 VIM-4 [4] | MIC of exemplary compounds in presence of fixed β-lactams, S. aureus MSSA-7 PC-1 [5] | IC50 (p99 AmpC β-lactamase) | IC50 (SHV-5 β-lactamase) | IC50 [6] | IC50 (KPC-2 β-lactamase; [8]) | MIC of exemplary compounds in presence of fixed β-lactams, E. coli ESBL4 CTX-M-15 [7] | IC50 (OXA-1 β-lactamase) | IC50 (KPC-2 β-lactamase) |
| --- | --- | --- | --- | --- | --- | --- | --- | --- | --- | --- | --- | --- |
| CC(=O)CCCC(=O)N[C@H]1Cc2cccc(C(=O)O)c2OB1O [Example 13, (R)-2-Hydroxy-3-(5-oxo-hexanoylamino)-3,4-dihydro-2H-benzo[e][1,2]oxaborinine-8-carboxylic acid] | C (C represents the MIC in the presence of ≤4 g/mL of a β-lactamase inhibitor) | C (C represents the MIC in the presence of ≤4 g/mL of a β-lactamase inhibitor) | C (C represents the MIC in the presence of ≤4 g/mL of a β-lactamase inhibitor) | C (C represents the MIC in the presence of ≤4 g/mL of a β-lactamase inhibitor) | C (C represents the MIC in the presence of ≤4 g/mL of a β-lactamase inhibitor) | < 100 nM | < 100 nM | 100 to 1000 nM | 100 to 1000 nM | C (C represents the MIC in the presence of ≤4 g/mL of a β-lactamase inhibitor) | < 100 nM | – |
| N#CCCCC(=O)N[C@H]1Cc2cccc(C(=O)O)c2OB1O [Example 14, (R)-3-(4-Cyano-butyrylamino)-2-hydroxy-3,4-dihydro-2H-benzo[e][1,2]oxaborinine-8-carboxylic acid] | C (C represents the MIC in the presence of ≤4 g/mL of a β-lactamase inhibitor) | C (C represents the MIC in the presence of ≤4 g/mL of a β-lactamase inhibitor) | C (C represents the MIC in the presence of ≤4 g/mL of a β-lactamase inhibitor) | B (B represents the MIC in the presence of between 8 and 32 g/mL of a β-lactamase inhibitor) | C (C represents the MIC in the presence of ≤4 g/mL of a β-lactamase inhibitor) | < 100 nM | < 100 nM | 1000 to 10000 nM | < 100 nM | C (C represents the MIC in the presence of ≤4 g/mL of a β-lactamase inhibitor) | < 100 nM | – |
| CN(C)C(=O)CCC(=O)N[C@H]1Cc2cccc(C(=O)O)c2OB1O [Example 15, (R)-3-(3-Dimethylcarbamoyl-propionylamino)-2-hydroxy-3,4-dihydro-2H-benzo[e][1,2]oxaborinine-8-carboxylicacid] | C (C represents the MIC in the presence of ≤4 g/mL of a β-lactamase inhibitor) | B (B represents the MIC in the presence of between 8 and 32 g/mL of a β-lactamase inhibitor) | C (C represents the MIC in the presence of ≤4 g/mL of a β-lactamase inhibitor) | A (A represents an MIC of the fixed β-lactam antibiotic in the presence of >32 g/mL of a β-lactamase inhibitor) | C (C represents the MIC in the presence of ≤4 g/mL of a β-lactamase inhibitor) | < 100 nM | < 100 nM | 10000 to 100000 nM | < 100 nM | C (C represents the MIC in the presence of ≤4 g/mL of a β-lactamase inhibitor) | < 100 nM | – |
| NC(=O)CCC(=O)N[C@H]1Cc2cccc(C(=O)O)c2OB1O [Example 16, (R)-3-(3-Carbamoyl-propionylamino)-2-hydroxy-3,4-dihydro-2H-benzo[e][1,2]oxaborinine-8-carboxylic acid] | C (C represents the MIC in the presence of ≤4 g/mL of a β-lactamase inhibitor) | C (C represents the MIC in the presence of ≤4 g/mL of a β-lactamase inhibitor) | C (C represents the MIC in the presence of ≤4 g/mL of a β-lactamase inhibitor) | B (B represents the MIC in the presence of between 8 and 32 g/mL of a β-lactamase inhibitor) | C (C represents the MIC in the presence of ≤4 g/mL of a β-lactamase inhibitor) | < 100 nM | 100 to 1000 nM | 100 to 1000 nM | – | C (C represents the MIC in the presence of ≤4 g/mL of a β-lactamase inhibitor) | < 100 nM | < 100 nM |
| CC(CCC(=O)N[C@H]1Cc2cccc(C(=O)O)c2OB1O)=NO [Example 17, (R)-2-Hydroxy-3-(4-hydroxyimino-pentanoylamino)-3,4-dihydro-2H-benzo[e][1,2]oxaborinine-8-carboxylic acid] | B (B represents the MIC in the presence of between 8 and 32 g/mL of a β-lactamase inhibitor) | C (C represents the MIC in the presence of ≤4 g/mL of a β-lactamase inhibitor) | C (C represents the MIC in the presence of ≤4 g/mL of a β-lactamase inhibitor) | B (B represents the MIC in the presence of between 8 and 32 g/mL of a β-lactamase inhibitor) | C (C represents the MIC in the presence of ≤4 g/mL of a β-lactamase inhibitor) | < 100 nM | < 100 nM | 1000 to 10000 nM | < 100 nM | C (C represents the MIC in the presence of ≤4 g/mL of a β-lactamase inhibitor) | < 100 nM | – |
| CON=C(C)CCC(=O)N[C@H]1Cc2cccc(C(=O)O)c2OB1O [Example 18, (R)-2-Hydroxy-3-(4-methoxyimino-pentanoylamino)-3,4-dihydro-2H-benzo[e][1,2]oxaborinine-8-carboxylic acid] | C (C represents the MIC in the presence of ≤4 g/mL of a β-lactamase inhibitor) | B (B represents the MIC in the presence of between 8 and 32 g/mL of a β-lactamase inhibitor) | C (C represents the MIC in the presence of ≤4 g/mL of a β-lactamase inhibitor) | A (A represents an MIC of the fixed β-lactam antibiotic in the presence of >32 g/mL of a β-lactamase inhibitor) | C (C represents the MIC in the presence of ≤4 g/mL of a β-lactamase inhibitor) | < 100 nM | < 100 nM | 1000 to 10000 nM | < 100 nM | C (C represents the MIC in the presence of ≤4 g/mL of a β-lactamase inhibitor) | < 100 nM | – |
